Results on 17 molecules are retold here after patent publication US9434763B2, “Derivatives of pyridinone as inhibitors for tissue transglutaminase” (ZEDIRA GMBH, priority 2012, dated 2016).

Each structure is given as a SMILES string. pIC50: −log10 of the molar value.

One data set deals with T1, TG6 (transglutaminase 6) (Homo sapiens, UniProt O95932).
T1 construct: purchased Zedira T021
T1 sequence (O95932 1-706): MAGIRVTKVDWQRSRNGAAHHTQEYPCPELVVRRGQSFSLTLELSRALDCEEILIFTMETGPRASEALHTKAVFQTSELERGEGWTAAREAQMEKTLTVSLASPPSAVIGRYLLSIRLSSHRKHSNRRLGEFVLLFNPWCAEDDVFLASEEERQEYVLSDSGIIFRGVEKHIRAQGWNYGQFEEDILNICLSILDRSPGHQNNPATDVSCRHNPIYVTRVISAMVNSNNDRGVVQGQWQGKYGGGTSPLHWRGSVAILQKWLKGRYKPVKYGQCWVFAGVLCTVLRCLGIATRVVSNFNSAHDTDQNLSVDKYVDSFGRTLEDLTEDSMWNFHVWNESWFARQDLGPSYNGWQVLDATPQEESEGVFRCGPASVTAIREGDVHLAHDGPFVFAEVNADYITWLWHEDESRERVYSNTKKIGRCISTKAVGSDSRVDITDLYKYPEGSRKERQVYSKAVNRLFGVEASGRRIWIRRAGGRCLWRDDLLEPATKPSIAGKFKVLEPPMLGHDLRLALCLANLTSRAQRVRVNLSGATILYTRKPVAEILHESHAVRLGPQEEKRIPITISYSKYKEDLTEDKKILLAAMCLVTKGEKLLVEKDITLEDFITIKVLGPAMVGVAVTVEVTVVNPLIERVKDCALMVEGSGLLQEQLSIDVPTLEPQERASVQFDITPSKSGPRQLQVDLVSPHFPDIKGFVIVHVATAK
Description: Comparative transglutaminase selectivity assay with casein and dansylcadaverine as substrates: TG6. In kind it is biochemical. The note with it: casein as substrate. The source says: The comparative determination of different transglutaminases to determine the selectivity was made with casein and dansylcadaverine as substrates. Therefore, the kit T036 (Zedira, Darmstadt; Refs: Lorand et al, Anal Biochem, 1971, 44:221-31) as well as transglutaminase products T009 (transglutaminase 1), T012 (transglutaminase 3), T021 (transglutaminase 6) and T027 (plasma transglutaminase, factor XIII) are used. Therefore, two different IC50 values for the compounds are given.
The evaluation of the resulting enzyme activity is done using the slope of the straight line obtained by the increase in fluorescence.
To determine the non-inhibited enzyme activity, DMSO instead of inhibitor stock solution is used. IC50 values are determined by plotting the resulting enzyme activity against the logarithm of the inhibitor concentration. IC50 is defined as the concentration of inhibitor resulting in 50% of enzyme activity.
It should be noted that it was measured here against casein as substrate, which is why other apparent inhibition values (IC50 value) result.

The test system of data set [1] is CaCo2 (human colon carcinoma-cell line). The data set can be described thus: Cytotoxicity: metabolic activity, EZ4U-Assay, CaCo2. The format is cell-based. As to the method:
(§1) Huh 7 (human hepatome-cell line) and CaCo2 (human colon carcinoma-cell line) were seeded to 96 well plates in Dulbecco's Modified Eagle's Medium (DMEM)/10% fetal calf serum (FCS) and cultivated. The method is known to the skilled person.
(§2) After one hour the inhibitors A63 (ZED1227), A29 (ZED1098) and A61 (ZED1219) were added in the concentrations 0.1 μM to 1 μM. The determination of the proliferation was carried out using the Cell Proliferation ELISA, BrdU (Roche 11 647 229 001): 24 hours after incubation of the cells with the inhibitor BrdU was added. The colorimetric development of the test was made after further 48 hours according to manufacturer's information. The extinction was measured at 450 nm. For determination of the metabolic activity using the EZ4U-Assay (Biomedica B1-5000) the tetrazolium substrate was added to the cells 48 hours after addition of the inhibitor. The capacity for reaction of the cells was measured every hour over a period of 4 hours at 450 nm against a reference filter of 630 nm. DMEM without inhibitor was added as reference in both experiments, as positive control cycloheximide (2.5 μg/ml) and camptothecin (0.2 μg/ml).

Data set [2] deals with Huh 7 (human hepatome-cell line). The data set can be described thus: Cytotoxicity: metabolic activity, EZ4U-Assay, Huh 7. In kind it is cell-based. How it is done: as §1
as §2, with “After one hour the inhibitors A63 (ZED1227), A29 (ZED1098) and A61 (ZED1219) were added in the concentrations 0.1 μM to 1 μM.” left out

On to `CCC(CC)CNC(=O)Cn1cccc(NC(=O)[C@H](CC/C=C/C(=O)OC)NC(=O)c2cncn2C)c1=O` [A63, (S,E)-Methyl 7-(1-(2-(2-ethylbutylamino)-2-oxoethyl)-2-oxo-1,2-dihydropyridin-3-ylamino)-6-(1-methyl-1H-imidazole-5-carboxamido)-7-oxohept-2-enoate], for which, on TG6 (transglutaminase 6), the pIC50 (usually the IC50 on a negative log10 scale, so that one unit is a factor of ten) is 4.50. Moreover, the “effect on metabolic activity (EZ4U)” value in data set [1] and in data set [2] was “no effect” throughout.

Molecule `CCOC(=O)/C=C/CC[C@H](NC(=O)c1ccccc1)C(=O)Nc1cccn(CC(=O)N[C@H](C(=O)O)[C@H](C)CC)c1=O` [A59, (2S,3R)-2-(2-(3-((S,E)-2-Benzamido-7-ethoxy-7-oxohept-5-enamido)-2-oxopyridin-1(2H)-yl)acetamido)-3-methylpentanoic acid] showed a pIC50 at TG6 (transglutaminase 6) of 5.03.

With `CCOC(=O)/C=C/CC[C@H](NC(C)=O)C(=O)Nc1cccn(CC(=O)NCC(CC)CC)c1=O` [A62, (S,E)-Ethyl 6-acetamido-7-(1-(2-(2-ethylbutylamino)-2-oxoethyl)-2-oxo-1,2-dihydropyridin-3-ylamino)-7-oxohept-2-enoate], on TG6 (transglutaminase 6), the pIC50 was 4.33. This pIC50 is 0.70 log units lower than that of the molecule before.

As to `CCOC(=O)/C=C/CC[C@H](NC(=O)c1cncn1C)C(=O)Nc1cccn(CC(=O)NCC(CC)CC)c1=O` [A58, (S,E)-Ethyl 7-(1-(2-(2-ethylbutylamino)-2-oxoethyl)-2-oxo-1,2-dihydropyridin-3-ylamino)-6-(1-methyl-1H-imidazole-5-carboxamido)-7-oxohept-2-enoate], the pIC50 against TG6 (transglutaminase 6) was 4.18.

Regarding `CCOC(=O)/C=C/CC[C@H](NC(=O)c1cncn1C)C(=O)Nc1cccn(CC(=O)NCCC(C)C)c1=O` [A19, (S,E)-Ethyl 7-(1-(2-(isopentylamino)-2-oxoethyl)-2-oxo-1,2-dihydropyridin-3-ylamino)-6-(1-methyl-1H-imidazole-5-carboxamido)-7-oxohept-2-enoate], the negative logarithm of the IC50 (pIC50) at TG6 (transglutaminase 6) was 4.27.

Molecule `CCOC(=O)/C=C/CC[C@H](NC(=O)CCC(=O)O)C(=O)Nc1cccn(CC(=O)NCC(CC)CC)c1=O` [A30, (S,E)-4-(7-Ethoxy-1-(1-(2-(2-ethylbutylamino)-2-oxoethyl)-2-oxo-1,2-dihydropyridin-3-ylamino)-1,7-dioxohept-5-en-2-ylamino)-4-oxobutanoic acid] had a pIC50 against TG6 (transglutaminase 6) of 4.48.

Take `CCOC(=O)/C=C/CC[C@H](NC(C)=O)C(=O)Nc1cccn(CC(=O)NCCC(CC)CC)c1=O` [A42, (S,E)-ethyl 6-acetamido-7-(1-(2-(3-ethylpentylamino)-2-oxoethyl)-2-oxo-1,2-dihydropyridin-3-ylamino)-7-oxohept-2-enoate]: the pIC50 at TG6 (transglutaminase 6) is 4.44.

`CCOC(=O)/C=C/CC[C@H](NC(=O)c1cncn1C)C(=O)Nc1cccn(CC(=O)N[C@H](C(=O)O)[C@H](C)CC)c1=O` [A53, (2S,3R)-2-(2-(3-((S,E)-7-Ethoxy-2-(1-methyl-1H-imidazole-5-carboxamido)-7-oxohept-5-enamido)-2-oxopyridin-1(2H)-yl)acetamido)-3-methylpentanoic acid]: the negative-log IC50 (pIC50) at TG6 (transglutaminase 6) was 4.58.

The molecule `COC(=O)/C=C/CC[C@H](NC(C)=O)C(=O)Nc1cccn(CC(=O)N2CCCC(C)C2)c1=O` (stereo partly drawn) [A64, (6S,E)-Methyl 6-acetamido-7-(1-(2-(3-methylpipendin-1-yl)-2-oxoethyl)-2-oxo-1,2-dihydropyridin-3-ylamino)-7-oxohept-2-enoate] gave a pIC50 on TG6 (transglutaminase 6) of 3.96.

As to `CCOC(=O)/C=C/CC[C@H](NC(=O)CCC(=O)O)C(=O)Nc1cccn(CC(=O)NCCC(C)C)c1=O` [A24, (S,E)-4-(7-Ethoxy-1-(1-(2-(isopentylamino)-2-oxoethyl)-2-oxo-1,2-dihydropyridin-3-ylamino)-1,7-dioxohept-5-en-2-ylamino)-4-oxobutanoic acid], the pIC50 against TG6 (transglutaminase 6) was 4.41.

Regarding `CC[C@@H](C)[C@H](NC(=O)Cn1cccc(NC(=O)[C@H](CC/C=C/C(=O)OC)NC(=O)c2cncn2C)c1=O)C(=O)O` [A60, (2S,3R)-2-(2-(3-((S,E)-7-Methoxy-2-(1-methyl-1H-imidazole-5-carboxamido)-7-oxohept-5-enamido)-2-oxopyridin-1(2H)-yl)acetamido)-3-methylpentanoic acid], the negative-log IC50 (pIC50) at TG6 (transglutaminase 6) is 4.94. This pIC50 lies 0.53 log units higher than the previous one.

Consider `COC(=O)/C=C/CC[C@H](NC(C)=O)C(=O)Nc1cccn(CC(=O)N2CCC(C(F)(F)F)CC2)c1=O` [A65, (S,E)-Methyl 6-acetamido-7-oxo-7-(2-oxo-1-(2-oxo-2-(4-(trifluoromethyl)piperidin-1-yl)ethyl)-1,2-dihydropyridin-3-ylamino)hept-2-enoate], for which the pIC50 against TG6 (transglutaminase 6) is 4.42.

For the molecule `CCC(CC)CNC(=O)Cn1cccc(NC(=O)[C@H](CC/C=C/C(=O)OC)NC(C)=O)c1=O` [A79, (S,E)-Methyl 6-acetamido-7-(1-(2-(2-ethylbutylamino)-2-oxoethyl)-2-oxo-1,2-dihydropyridin-3-ylamino)-7-oxohept-2-enoate], the negative-log IC50 (pIC50) against TG6 (transglutaminase 6) was 4.32. The pIC50 values of the last two molecules are within 0.2 log units of each other.

`COC(=O)/C=C/CC[C@H](NC(C)=O)C(=O)Nc1cccn(CC(=O)NCCC(C)C)c1=O` [A29, (S,E)-methyl 6-acetamido-7-(1-(2-(isopentylamino)-2-oxoethyl)-2-oxo-1,2-dihydropyridin-3-ylamino)-7-oxohept-2-enoate]: at TG6 (transglutaminase 6), the pIC50 was 4.08. For the same molecule, the “effect on metabolic activity (EZ4U)” value in data set [1] and in data set [2] was “no effect” each time.

For the molecule `CCOC(=O)/C=C/CC[C@H](NC(C)=O)C(=O)Nc1cccn(CC(=O)NCCC(C)C)c1=O` [A7, (S,E)-Ethyl 6-acetamido-7-(1-(2-(isopentylamino)-2-oxoethyl)-2-oxo-1,2-dihydropyridin-3-ylamino)-7-oxohept-2-enoate], the pIC50 on TG6 (transglutaminase 6) was 4.29.

On TG6 (transglutaminase 6), `CCOC(=O)/C=C/CC[C@H](NC(C)=O)C(=O)Nc1cccn(CC(=O)N[C@H](C(=O)OC)[C@H](C)CC)c1=O` [A35, (S,E)-ethyl 6-acetamido-7-(1-(2-((2S,3R)-1-methoxy-3-methyl-1-oxopentan-2-ylamino)-2-oxoethyl)-2-oxo-1,2-dihydropyridin-3-ylamino)-7-oxohept-2-enoate] had a negative logarithm of the IC50 (pIC50) of 4.67.

`CC[C@@H](C)[C@H](NC(=O)Cn1cccc(NC(=O)[C@H](CC/C=C/C(=O)OC)NC(=O)c2ccccc2)c1=O)C(=O)O` [A61, (2S,3R)-2-(2-(3-((S,E)-2-benzamido-7-methoxy-7-oxohept-5-enamido)-2-oxopyridin-1(2H)-yl)acetamido)-3-methylpentanoic acid] gave a pIC50 against TG6 (transglutaminase 6) of 5.37. Also, the “effect on metabolic activity (EZ4U)” value in data set [1] and in data set [2] was “no effect” each time.
